According to PubChem BioAssay (NCI):
Several values for one entry are separate records, joined by “and”; a condition that tells them apart may be missing. Identical values can stand only once.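 Growth conditions: 96-well plates. Treatment: test compound, 48 hours, 5 concentrations. Analysis: linear interpolation between bracketing concentrations; unreached endpoints set to highest concentration. GI50 = concentration required for 50% inhibition of growth. TGI: concentration producing complete growth inhibition.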

Key:
Assay in all cases: growth of human tumour cells (NCI), 48 h
HT29 colon = system: HT29 colon
U251 CNS = system: U251 CNS
HS 578T breast = system: HS 578T breast
TK-10 renal = system: TK-10 renal
MDA-MB-435 = system: MDA-MB-435
HCC-2998 colon = system: HCC-2998 colon
IGROV1 ovarian = system: IGROV1 ovarian
NCI-H226 lung = system: NCI-H226 lung
MOLT-4 leukemia = system: MOLT-4 leukemia
M14 melanoma = system: M14 melanoma

Compound	TGI (HT29 colon)	TGI (U251 CNS)	TGI (HS 578T breast)	TGI (TK-10 renal)	TGI (MDA-MB-435)	TGI (HCC-2998 colon)	TGI (IGROV1 ovarian)	TGI (NCI-H226 lung)	TGI (MOLT-4 leukemia)	TGI (M14 melanoma)	GI50 (HT29 colon)	GI50 (U251 CNS)	GI50 (HS 578T breast)	GI50 (TK-10 renal)	GI50 (MDA-MB-435)	GI50 (HCC-2998 colon)	GI50 (IGROV1 ovarian)	GI50 (NCI-H226 lung)	GI50 (MOLT-4 leukemia)	GI50 (M14 melanoma)
COc1cc2ccc(/C=C\[N+](=O)[O-])cc2cc1OC	4 µM	9.87 µM	37.8 µM	9.01 µM	7.63 µM	13.6 µM	3.92 µM	76.5 µM	19.1 µM	7.41 µM										
COc1ccc(-c2cn(-c3cc(OC)c(OC)c(OC)c3)c(SCc3ccccc3)n2)cc1OC	> 100 µM	> 100 µM	> 100 µM	> 100 µM	> 100 µM	> 100 µM	> 100 µM	> 100 µM	> 100 µM	> 100 µM	> 100 µM	> 100 µM	> 100 µM	> 100 µM	> 100 µM	84.7 µM	> 100 µM	> 100 µM	73.3 µM	> 100 µM
COc1cc(CSc2nc3ccc(C)cc3c(=O)n2-c2ccccc2)cc(OC)c1OC	> 100 µM	> 100 µM	> 100 µM	> 100 µM	0.896 µM	> 100 µM	> 100 µM	> 100 µM	> 100 µM	> 100 µM	0.759 µM	3.77 µM	2.16 µM	8.1 µM	0.269 µM	5.49 µM	3.36 µM	3.4 µM	3.85 µM	1.4 µM
O=C(CCCCCCCCC(=O)N/N=C\c1ccccc1O)N/N=C\c1ccccc1O	> 36.6 µM	9.14 µM	41.6 µM	> 46.7 µM	> 100 µM	> 100 µM	54.5 µM	11 µM	7.37 µM	1.78 µM	4.62 µM	0.308 µM	3.55 µM	1.87 µM	0.704 µM	2.92 µM	1.73 µM	0.49 µM	0.338 µM	0.306 µM
Nc1c(C(=O)c2cccc(-c3ccncc3)c2)cnn1-c1ccc(F)cc1F	> 25 µM	> 25 µM	> 25 µM	> 25 µM	3.56 µM	> 25 µM	> 25 µM	> 25 µM	> 25 µM	> 25 µM	2.48 µM	12.6 µM	> 25 µM	> 15 µM	0.684 µM	> 21.3 µM	9.98 µM	4.36 µM	8.39 µM	6.58 µM
COc1ccc(-c2c[nH]c(C(=O)O)c2-c2cc(OC)c(OC)c(OC)c2)cc1	> 100 µM	> 100 µM	> 100 µM	> 100 µM	4.19 µM	> 100 µM	> 100 µM	> 100 µM	> 100 µM	> 100 µM	3.29 µM	4.99 µM	3.42 µM	> 100 µM	1.6 µM	7.53 µM	5.5 µM	4.59 µM	4.95 µM	3.65 µM
O=C1Nc2ccccc2/C1=C/C(=O)c1coc2c1C(=O)c1ccccc1C2=O	> 100 µM	> 100 µM	> 100 µM	> 100 µM	> 100 µM	> 100 µM	> 100 µM	> 100 µM	> 100 µM	> 100 µM	> 100 µM	> 100 µM	> 100 µM	> 100 µM	> 100 µM	> 100 µM	> 100 µM	> 100 µM	62.3 µM	> 100 µM
C#Cc1c(F)ccc2cc(O)cc(-c3ncc4c(N5CC6CCC(C5)N6)nc(OC[C@@]56CCCN5C[C@H](F)C6)nc4c3F)c12	31 µM	31.5 µM	28.2 µM	> 55.5 µM	27.3 µM	17.5 µM	29.9 µM	35.1 µM	28.4 µM	29.6 µM	9.99 µM	10.9 µM	8.47 µM	21.8 µM	13.6 µM	1.32 µM	13.9 µM	15.1 µM	8.72 µM	14 µM
COc1ccc2c(c1)c(=O)oc1cc(OC/C(C)=N\O)ccc12	> 100 µM	> 100 µM	> 100 µM	> 100 µM	> 100 µM	> 100 µM	> 100 µM	> 100 µM	> 100 µM	> 100 µM	> 100 µM	33.4 µM	27.6 µM	44.8 µM	> 100 µM	> 100 µM	> 100 µM	> 100 µM	> 100 µM	> 100 µM
CC1CCC(NC(=O)N(CCCl)N=O)CC1 (stereo unspecified)	109 µM	65.9 µM	155 µM	125 µM	65.9 µM	93.9 µM	80.7 µM and 89 µM	150 µM	40.2 µM and 66.6 µM	30.5 µM and 66.5 µM		20.8 µM		45.2 µM			22.6 µM	36.1 µM		14.3 µM
COc1cc([N+](=O)[O-])c(OC)cc1-c1nc2sc(Cl)cn2c1/C(N)=N/C(=N)N	> 100 µM	> 100 µM	6.8 µM	24.3 µM	4.64 µM	4.15 µM	> 54.6 µM	53.9 µM	> 100 µM	13 µM	3.02 µM	3.41 µM	2.72 µM	7.31 µM	1.9 µM	1.99 µM	5.18 µM	20.9 µM	3.09 µM	3.51 µM
CN(C)CCN1C(=O)c2ccccc2N(C)c2ccccc21	> 100 µM	> 100 µM	> 100 µM	> 100 µM	> 100 µM	> 100 µM	> 100 µM	> 100 µM	> 100 µM	> 100 µM	> 100 µM	> 100 µM	> 100 µM	> 100 µM	> 100 µM	> 100 µM	> 100 µM	> 100 µM	> 100 µM	> 100 µM
C=C(C)C(=O)Nc1ccc(NC(C)C)cc1	> 100 µM	> 100 µM	> 100 µM	> 100 µM	> 100 µM	> 100 µM	> 100 µM	> 100 µM	> 100 µM	> 100 µM	> 100 µM	> 100 µM	> 100 µM	> 100 µM	> 100 µM	> 100 µM	> 100 µM	> 100 µM	> 100 µM	> 100 µM
COc1ccc(C(=O)c2cc(OC)c(OC)c(OC)c2)cc1OC(=O)CCl	> 100 µM	> 100 µM	> 100 µM	> 100 µM		> 100 µM	> 100 µM	> 100 µM	> 100 µM		1.94 µM	0.0422 µM	0.0281 µM	19.4 µM	< 0.01 µM	0.0393 µM	0.359 µM	11.3 µM	< 0.0209 µM	< 0.0142 µM
C=C1C(=O)O[C@H]2[C@H]1CC/C(COC(=O)NCc1cn(C)c3ccccc13)=C\CC[C@@]1(C)O[C@@H]21	3 µM	5.24 µM	35.7 µM	3.43 µM	3.05 µM	5.33 µM	3.31 µM	20.9 µM	5.98 µM	2.92 µM	1.22 µM	1.96 µM	3.54 µM	1.8 µM	1.28 µM	2.3 µM	1.58 µM	4.38 µM	1.92 µM	1.45 µM
COc1cc([C@@H]2OC[C@@H]3C(c4cc(OC)c5c(c4)OCO5)OC[C@@H]32)cc(OC)c1OC (stereo partly specified)	> 100 µM	> 100 µM	> 100 µM	> 100 µM	> 100 µM	> 100 µM	> 100 µM	> 100 µM	> 100 µM	> 100 µM										
Cc1cccc(C)c1NC(=O)C(C#N)C1=C(Cl)C(=O)c2ccccc2C1=O (stereo unspecified)	39.8 µM	42.7 µM	52.1 µM	33.7 µM	34.3 µM	32.2 µM	31.8 µM	17.4 µM	26.9 µM	21.4 µM										
CC(=O)OCC1OC(n2cnc(C(N)=S)c2N)C(OC(C)=O)C1OC(C)=O (stereo unspecified)	> 100 µM	> 100 µM	> 100 µM	> 100 µM	> 100 µM	> 100 µM	> 100 µM	> 100 µM	> 100 µM	> 100 µM										
CCC(C)(CC(C)(C)C(=O)NCC(=O)NC(Cc1ccccc1)C(=O)NC(Cc1ccccc1)C(=O)NCC(=O)NC1CC(OC2CC(O)(C(=O)CO)Cc3c(O)c4c(c(O)c32)C(=O)c2c(OC)cccc2C4=O)OC(C)C1O)C(=O)NCC(C)O (stereo unspecified)	> 150 µg/mL	> 150 µg/mL	> 150 µg/mL	> 150 µg/mL	> 150 µg/mL	> 150 µg/mL	> 150 µg/mL	> 150 µg/mL	96.6 µg/mL	> 150 µg/mL	91.9 µg/mL	51.2 µg/mL	> 150 µg/mL	> 150 µg/mL	> 150 µg/mL	116 µg/mL	41.7 µg/mL	41.4 µg/mL	7.84 µg/mL	120 µg/mL
CC(C)(C)n1cc(-c2ccnc(NCCCNS(=O)(=O)c3ccc(C(F)(F)F)cc3)c2)c(-c2cccc(O)c2)n1		3.53 µM	4.84 µM	5.28 µM	3.35 µM	3.25 µM	3.55 µM	5.71 µM	6.92 µM	3.93 µM		1.71 µM	1.98 µM	2.31 µM	1.81 µM	1.82 µM	1.8 µM	2.35 µM	2.33 µM	2 µM
